Columns and labels:
[1] = test system: subjects with mild-to-moderate Alzheimer's disease; assay: Phase 2a Clinical Study A: ADAS-cog (13-item) total score; assay type: in vivo, human
Protocol: (§1) A Phase 2a proof-of-concept (POC) study in subjects with mild-to-moderate dementia of Alzheimer type was conducted. The study was a randomized, double-blind, placebo- and active-controlled, multicenter study designed to evaluate the efficacy and safety of Compound A (ABT-126) in subjects diagnosed with mild-to-moderate Alzheimer's disease, defined as meeting National Institute of Neurological and Communicative Disorders and Stroke/Alzheimer's Disease and Related Disorders Association (NINCDS/ADRDA) criteria for probable AD. […] Subjects were randomized in an equal ratio to one of four treatment groups (placebo, 5 mg Compound A, 25 mg Compound A, or donepezil) for a 12-week treatment period. The primary efficacy measure was the Alzheimer's Disease Assessment Scale—cognitive subscale (ADAS-Cog). Subjects were generally in good health and any chronic medical conditions were stable during the time of screening. Subjects were not taking other medication for Alzheimer's disease.
(§2) The study was a Phase 2, randomized, double-blind, placebo- and active-controlled, multicenter study designed to evaluate the dose-response relationship and safety of two doses of Compound A in subjects diagnosed with mild to moderate AD, defined as meeting NINCDS/ADRDA criteria for probable AD.
(§3) The study consisted of a Screening Period of up to 28 days, a 12-week treatment period, and a post-treatment period. The screening period consisted of three visits: Screening Visit 1, Screening Visit 2, and Day −1. Upon completion of Day −1 procedures, eligible subjects were randomized through an Interactive Voice Response/Interactive Web-Based (IVR/IWB) system. Subjects were randomized in an equal ratio to one of four treatment groups (placebo, 5 mg Compound A, 25 mg Compound A, or donepezil).
(§4) Each subject was instructed to take study drug once-daily in the morning for 12 weeks. Subjects randomized to donepezil took 5 mg donepezil QD for the first 4 weeks and began 10 mg donepezil QD at Week 4 through the remainder of the study. The subject and investigator were blinded to the treatment assignment throughout the study.
(§5) The primary efficacy measure was the Alzheimer's Disease Assessment Scale-cognitive subscale (ADAS-cog). The ADAS-cog was designed to assess the cognitive impairments most common in AD. The ADAS-cog is a subscale of the ADAS, which focuses on cognitive functioning and memory. Two versions were used in the study: an 11-item version and an expanded (13-item) version. The 11-item version of the ADAS-cog was the primary endpoint measure in this study. ADAS-Cog (13-item) was administered throughout the study and the primary efficacy variable was considered the change from baseline to final evaluation on the ADAS-cog total score (11-item).
The 13-item ADAS-cog is comprised of the 11-item ADAS-cog with two additional items (Delayed Word Recall and a Number Cancellation Test) that are designed to assess attention and concentration. The Delayed Word Recall Test (range from 0 to 10) was an addition to the Word Recall Test to enhance sensitivity of the instrument in assessing cognition functioning on patients with mild AD. The Number Cancellation Test (range from 0 to 5) was reliable and sensitive to a broad range of dementia severity, and was recommended as a useful addition to the 11-item ADAS-cog. The total score of the 13-item ADAS-cog ranges from 0 to 85, with a higher score representing greater impairment. The ADAS-cog (13-item) was administered by a certified rater at Screening Visit 1, Screening Visit 2, and Day-1, as well as Weeks 4, 8, and 12 during the study.

[2] = test system: subjects with mild-to-moderate Alzheimer's disease; assay: Phase 2a Clinical Study A: ADAS-cog (11-item) total score; assay type: in vivo, human
Protocol: as §1, §2, §3, §4
Subjects completed 4 visits during the treatment period at Week 2, Week 4, Week 8 and Week 12. Subjects returned to the study site for a follow-up visit approximately 2 weeks after the Week 12 or premature discontinuation visit for a safety evaluation. In addition, study site personnel contacted each subject's caregiver by telephone approximately 30 days after the subject's last dose of study drug to ascertain the subject's safety status.
as §5
The 11-item ADAS-cog includes the following tests: Word Recall, Commands, Constructional Praxis, Naming Objects and Fingers, Ideational Praxis, Orientation, Word Recognition, Remembering Test Instructions, Comprehension of Spoken Language, Spoken Language Ability, and Word Finding Difficulty. The total score of the 11-item ADAS-cog ranges from 0 to 70, with a higher score representing greater impairment.
The primary efficacy variable was the change from baseline to the final observation on the ADAS-cog (11-item) total score. The primary efficacy analysis was carried out using an ANCOVA model with treatment and study site as the main effects and baseline score as the covariate. […]

[3] = donepezil 5 mg QD first 4 weeks then 10 mg QD, ANCOVA, baseline to final evaluation
[4] = donepezil 5 mg QD first 4 weeks then 10 mg QD, Change to Week 8
[5] = donepezil 5 mg QD first 4 weeks then 10 mg QD, Change to Week 12
[6] = donepezil 5 mg QD first 4 weeks then 10 mg QD, MMRM, Week 8
[7] = donepezil 5 mg QD first 4 weeks then 10 mg QD, MMRM, Week 12
[8] = donepezil 5 mg QD first 4 weeks then 10 mg QD, final evaluation, 12-week treatment
[9] = donepezil 5 mg QD, Change to Week 4
[10] = donepezil 5 mg QD, MMRM, Week 4

Q: How did the “ADAS-cog (13-Item) Total Score Difference From Placebo LS Mean (SE) of Difference” value [1, 3] turn out when `COc1cc2c(cc1OC)C(=O)C(CC1CCN(Cc3ccccc3)CC1)C2` (stereo not shown) [Donepezil, donepezil, reference compound] was run?
A: Its value is −2.49 (1.04).

Q: What about the “ADAS-cog (13-Item) Total Score LS Mean (SE) of Change” value [1, 3] of the same compound?
A: Its value is −3.27 (0.74).

Q: What about the “ADAS-cog (13-Item) Total Score Observed Mean (SD) change” value [1, 4] of the same compound?
A: Its value is −2.66 (5.48).

Q: And the “ADAS-cog (13-Item) Total Score Observed Mean (SD) change” value [1, 5]?
A: The value was −4.17 (4.94).

Q: What about the “ADAS-cog (13-Item) Total Score Difference From Placebo LS Mean (SE) of Difference” value [1, 6] of the same compound?
A: The value was −1.85 (0.98).

Q: And the “ADAS-cog (13-Item) Total Score LS Mean (SE) of Change from Baseline” value [1, 6]?
A: The value was −2.20 (0.70).

Q: And the “ADAS-cog (13-Item) Total Score Difference From Placebo LS Mean (SE) of Difference” value [1, 7]?
A: Its value is −2.48 (1.06).

Q: What about the “ADAS-cog (13-Item) Total Score LS Mean (SE) of Change from Baseline” value [1, 7] of the same compound?
A: Its value is −3.61 (0.76).

Q: What about the “ADAS-cog (13-Item) Total Score Observed Mean (SD) Final” value [1, 8] of the same compound?
A: Its value is 33.90 (13.37).

Q: What about the “ADAS-cog (13-Item) Total Score Observed Mean (SD) change” value [1, 9] of the same compound?
A: Its value is −1.84 (3.94).

Q: What about the “ADAS-cog (13-Item) Total Score Difference From Placebo LS Mean (SE) of Difference” value [1, 10] of the same compound?
A: The value was −1.53 (0.74).

Q: What about the “ADAS-cog (13-Item) Total Score LS Mean (SE) of Change from Baseline” value [1, 10] of the same compound?
A: Its value is −1.53 (0.53).

Q: What about the “ADAS-cog (11-Item) Total Score Difference From Placebo LS Mean (SE) of Difference” value [2, 3] of the same compound?
A: The value was −1.43.

Q: What about the “ADAS-cog (11-Item) Total Score LS Mean (SE) of Change” value [2, 3] of the same compound?
A: The value was −2.11 (0.65).

Q: And the “ADAS-cog (11-Item) Total Score Observed Mean (SD) change” value [2, 4]?
A: The value was −1.69 (4.96).

Q: And the “ADAS-cog (11-Item) Total Score Observed Mean (SD) change” value [2, 5]?
A: The value was −2.91 (4.76).

Q: What about the “ADAS-cog (11-Item) Total Score Difference From Placebo LS Mean (SE) of Difference” value [2, 6] of the same compound?
A: Its value is −0.70 (0.83).

Q: And the “ADAS-cog (11-Item) Total Score LS Mean (SE) of Change from Baseline” value [2, 6]?
A: The value was −1.26 (0.59).

Q: And the “ADAS-cog (11-Item) Total Score Difference From Placebo LS Mean (SE) of Difference” value [2, 7]?
A: Its value is −1.57 (0.91).

Q: What about the “ADAS-cog (11-Item) Total Score LS Mean (SE) of Change from Baseline” value [2, 7] of the same compound?
A: Its value is −2.40 (0.65).

Q: And the “ADAS-cog (11-Item) Total Score Observed Mean (SD) Final” value [2, 8]?
A: Its value is 23.21 (11.53).

Q: What about the “ADAS-cog (11-Item) Total Score Observed Mean (SD) change” value [2, 9] of the same compound?
A: The value was −1.04 (3.53).

Q: And the “ADAS-cog (11-Item) Total Score Difference From Placebo LS Mean (SE) of Difference” value [2, 10]?
A: Its value is −0.68 (0.65).

Q: And the “ADAS-cog (11-Item) Total Score LS Mean (SE) of Change from Baseline” value [2, 10]?
A: The value was −0.78 (0.47).

Q: What about the “cognition relative to placebo, ADAS-cog (11-item) MMRM (in words)” value ([2]; donepezil treatment group) of the same compound?
A: Its value is “cognitive improvement relative to placebo”.

Source: patent publication US8802693B1, “Azaadamantane derivatives and methods of use” (priority 2011, dated 2014)
